Source: PubChem BioAssay AID1963426 (Molecular Pharmacology Branch, DTP, NCI, 2024)

System: 186277-243-T-J2-PDC complex spheroid growth, % test/control
Test: Anticancer human tumor 186277-243-T-J2-PDC patient-derived colon adenocarcinoma cell line growth inhibition [Asc]
Conditions: for IC50: curve of first compound; for viability, T/C: stronger effect = lower value
How it was run: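 Complex spheroids combining tumor cells with HUVEC endothelial cells and human MSCs, at 37 degrees C, 5% CO2; agents tested alone or combined, half-log dilutions from at or near clinical Cmax, or 10 microM if Cmax unknown.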

[1] = second compound 0.1 µM, first compound 0.0316 µM
[2] = second compound 0.1 µM, first compound 0.1 µM
[3] = second compound 0.1 µM, first compound 0.316 µM
[4] = second compound 0.1 µM, first compound 1 µM
[5] = second compound 0.1 µM, first compound 3.16 µM
[6] = second compound 0.1 µM, first compound 10 µM
[7] = second compound 0.316 µM, first compound 0.0316 µM
[8] = second compound 0.316 µM, first compound 0.1 µM
[9] = second compound 0.316 µM, first compound 0.316 µM
[10] = second compound 0.316 µM, first compound 1 µM
[11] = second compound 0.316 µM, first compound 3.16 µM
[12] = second compound 0.316 µM, first compound 10 µM
[13] = second compound 1 µM, first compound 0.0316 µM
[14] = second compound 1 µM, first compound 0.1 µM
[15] = second compound 1 µM, first compound 0.316 µM
[16] = second compound 1 µM, first compound 1 µM
[17] = second compound 1 µM, first compound 3.16 µM
[18] = second compound 1 µM, first compound 10 µM
[19] = second compound 3.16 µM, first compound 0.0316 µM
[20] = second compound 3.16 µM, first compound 0.1 µM
[21] = second compound 10 µM, first compound 0.0316 µM
[22] = second compound 10 µM, first compound 0.1 µM
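Note: spheroids exposed to agents for 7 days.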
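Throughout, for viability, T/C: 100% = DMSO vehicle control wells.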

Q: How did the IC50 (second compound 0.1 µM) turn out when C#Cc1c(F)ccc2cc(O)cc(-c3ncc4c(N5CC6CCC(C5)N6)nc(OCC56CCCN5CC(F)C6)nc4c3F)c12 (stereo not given) + Cc1c(S(C)(=O)=O)c(-c2cc(F)cc(N3CCN(c4ccc(NS(=O)(=O)c5ccc(NC(CCN6CCC(C(=O)OCCCP(=O)(O)O)CC6)CSc6ccccc6)c(S(=O)(=O)C(F)(F)F)c5)cc4)CC3)c2)c(-c2ccc(Cl)cc2)n1C(C)C was run?
A: 178 nM

Q: And the IC50 (second compound 0.316 µM)?
A: 127 nM

Q: What about the IC50 (second compound 1 µM) of the same molecule?
A: 114 nM

Q: What about the IC50 (second compound 3.16 µM) of the same molecule?
A: 91.9 nM

Q: And the IC50 (second compound 10 µM)?
A: 87.3 nM

Q: What about the viability, T/C [1] of the same molecule?
A: 91.5%

Q: What about the viability, T/C [2] of the same molecule?
A: 69.7%

Q: What about the viability, T/C [3] of the same molecule?
A: 30.2%

Q: What about the viability, T/C [4] of the same molecule?
A: 11.3%

Q: And the viability, T/C [5]?
A: 6.43%

Q: What about the viability, T/C [6] of the same molecule?
A: 5.27%

Q: And the viability, T/C [7]?
A: 115%

Q: What about the viability, T/C [8] of the same molecule?
A: 56.9%

Q: And the viability, T/C [9]?
A: 23.6%

Q: And the viability, T/C [10]?
A: 7.76%

Q: What about the viability, T/C [11] of the same molecule?
A: 3.89%

Q: What about the viability, T/C [12] of the same molecule?
A: 3.47%

Q: What about the viability, T/C [13] of the same molecule?
A: 86.3%

Q: What about the viability, T/C [14] of the same molecule?
A: 54%

Q: And the viability, T/C [15]?
A: 18.7%

Q: What about the viability, T/C [16] of the same molecule?
A: 5.48%

Q: And the viability, T/C [17]?
A: 2.03%

Q: And the viability, T/C [18]?
A: 1.87%

Q: What about the viability, T/C [19] of the same molecule?
A: 87%

Q: And the viability, T/C [20]?
A: 47.1%

Q: What about the viability, T/C (second compound 3.16 µM, first compound 0.316 µM) of the same molecule?
A: 8.29%

Q: And the viability, T/C (second compound 3.16 µM, first compound 1 µM)?
A: 2.66%

Q: And the viability, T/C (second compound 3.16 µM, first compound 3.16 µM)?
A: 1.51%

Q: What about the viability, T/C (second compound 3.16 µM, first compound 10 µM) of the same molecule?
A: 1.34%

Q: And the viability, T/C [21]?
A: 76.1%

Q: What about the viability, T/C [22] of the same molecule?
A: 46.5%

Q: What about the viability, T/C (second compound 10 µM, first compound 0.316 µM) of the same molecule?
A: 5.7%

Q: And the viability, T/C (second compound 10 µM, first compound 1 µM)?
A: 1.72%

Q: What about the viability, T/C (second compound 10 µM, first compound 3.16 µM) of the same molecule?
A: 0.91%

Q: What about the viability, T/C (second compound 10 µM, first compound 10 µM) of the same molecule?
A: 0.74%

Q: What does the source list for Cn1ncnc1[C@H]1c2n[nH]c(=O)c3cc(F)cc(c23)N[C@@H]1c1ccc(F)cc1 + Cc1c(S(C)(=O)=O)c(-c2cc(F)cc(N3CCN(c4ccc(NS(=O)(=O)c5ccc(NC(CCN6CCC(C(=O)OCCCP(=O)(O)O)CC6)CSc6ccccc6)c(S(=O)(=O)C(F)(F)F)c5)cc4)CC3)c2)c(-c2ccc(Cl)cc2)n1C(C)C?
A: IC50 (second compound 0.1 µM): > 100 nM; IC50 (second compound 0.316 µM): > 100 nM; IC50 (second compound 1 µM): > 100 nM; IC50 (second compound 3.16 µM): > 100 nM; IC50 (second compound 10 µM): 75 nM; viability, T/C (second compound 0.1 µM, first compound 0.000316 µM): 98.4%; viability, T/C (second compound 0.1 µM, first compound 0.001 µM): 85.5%; viability, T/C (second compound 0.1 µM, first compound 0.00316 µM): 101%; viability, T/C (second compound 0.1 µM, first compound 0.01 µM): 101%; viability, T/C [1]: 108%; viability, T/C [2]: 99.1%; viability, T/C (second compound 0.316 µM, first compound 0.000316 µM): 111%; viability, T/C (second compound 0.316 µM, first compound 0.001 µM): 95.5%; viability, T/C (second compound 0.316 µM, first compound 0.00316 µM): 114%; viability, T/C (second compound 0.316 µM, first compound 0.01 µM): 111%; viability, T/C [7]: 98.3%; viability, T/C [8]: 86.8%; viability, T/C (second compound 1 µM, first compound 0.000316 µM): 100%; viability, T/C (second compound 1 µM, first compound 0.001 µM): 103%; viability, T/C (second compound 1 µM, first compound 0.00316 µM): 103%; viability, T/C (second compound 1 µM, first compound 0.01 µM): 91.5%; viability, T/C [13]: 70%; viability, T/C [14]: 63.8%; viability, T/C (second compound 3.16 µM, first compound 0.000316 µM): 106%; viability, T/C (second compound 3.16 µM, first compound 0.001 µM): 99%; viability, T/C (second compound 3.16 µM, first compound 0.00316 µM): 113%; viability, T/C (second compound 3.16 µM, first compound 0.01 µM): 97.9%; viability, T/C [19]: 66%; viability, T/C [20]: 56.1%; viability, T/C (second compound 10 µM, first compound 0.000316 µM): 95.4%; viability, T/C (second compound 10 µM, first compound 0.001 µM): 95.9%; viability, T/C (second compound 10 µM, first compound 0.00316 µM): 116%; viability, T/C (second compound 10 µM, first compound 0.01 µM): 96.1%; viability, T/C [21]: 70.5%; viability, T/C [22]: 43.2%

Q: Which results are given for C#Cc1c(F)ccc2cc(O)cc(-c3ncc4c(N5CC6CCC(C5)N6)nc(OCC56CCCN5CC(F)C6)nc4c3F)c12 (stereo not given) + CNC(C)C(=O)NC1CN(S(=O)(=O)c2cccc(S(=O)(=O)N3CCC4CCC(C(=O)NC(c5ccccc5)c5ccccc5)N4C(=O)C(NC(=O)C(C)NC)C3)c2)CCC2CCC(C(=O)NC(c3ccccc3)c3ccccc3)N2C1=O?
A: IC50 (second compound 0.01 µM): 571 nM; IC50 (second compound 0.0316 µM): 560 nM; IC50 (second compound 0.1 µM): 452 nM; IC50 (second compound 0.316 µM): 313 nM; IC50 (second compound 1 µM): 230 nM; viability, T/C (second compound 0.01 µM, first compound 0.0316 µM): 110%; viability, T/C (second compound 0.01 µM, first compound 0.1 µM): 110%; viability, T/C (second compound 0.01 µM, first compound 0.316 µM): 68.6%; viability, T/C (second compound 0.01 µM, first compound 1 µM): 31.6%; viability, T/C (second compound 0.01 µM, first compound 3.16 µM): 18.1%; viability, T/C (second compound 0.01 µM, first compound 10 µM): 10.9%; viability, T/C (second compound 0.0316 µM, first compound 0.0316 µM): 119%; viability, T/C (second compound 0.0316 µM, first compound 0.1 µM): 98.4%; viability, T/C (second compound 0.0316 µM, first compound 0.316 µM): 72.2%; viability, T/C (second compound 0.0316 µM, first compound 1 µM): 27.7%; viability, T/C (second compound 0.0316 µM, first compound 3.16 µM): 16.8%; viability, T/C (second compound 0.0316 µM, first compound 10 µM): 9.61%; viability, T/C [1]: 111%; viability, T/C [2]: 99.9%; viability, T/C [3]: 61%; viability, T/C [4]: 24.6%; viability, T/C [5]: 13.2%; viability, T/C [6]: 8.58%; viability, T/C [7]: 128%; viability, T/C [8]: 90%; viability, T/C [9]: 53.2%; viability, T/C [10]: 18.4%; viability, T/C [11]: 10.1%; viability, T/C [12]: 8.04%; viability, T/C [13]: 123%; viability, T/C [14]: 91.4%; viability, T/C [15]: 34%; viability, T/C [16]: 11.7%; viability, T/C [17]: 8.66%; viability, T/C [18]: 6.64%

Q: C#Cc1c(F)ccc2cc(O)cc(-c3ncc4c(N5CC6CCC(C5)N6)nc(OCC56CCCN5CC(F)C6)nc4c3F)c12 (stereo not given) + CCN1C(C(=O)NC23CCC(C(=O)O)(CC2)CC3)C(c2cccc(Cl)c2F)C2(C(=O)Nc3cc(Cl)ccc32)C12CCCCC2 was tested. Which IC50 (second compound 0.03 µM) did it give?
A: 119 nM

Q: What about the IC50 (second compound 0.0949 µM) of the same molecule?
A: 35.4 nM

Q: What about the IC50 (second compound 0.3 µM) of the same molecule?
A: < 31.6 nM

Q: What about the IC50 (second compound 0.949 µM) of the same molecule?
A: < 31.6 nM

Q: And the IC50 (second compound 3 µM)?
A: < 31.6 nM

Q: What about the viability, T/C (second compound 0.03 µM, first compound 0.0316 µM) of the same molecule?
A: 57.1%

Q: What about the viability, T/C (second compound 0.03 µM, first compound 0.1 µM) of the same molecule?
A: 55.3%

Q: And the viability, T/C (second compound 0.03 µM, first compound 0.316 µM)?
A: 24.1%

Q: And the viability, T/C (second compound 0.03 µM, first compound 1 µM)?
A: 7.49%

Q: And the viability, T/C (second compound 0.03 µM, first compound 3.16 µM)?
A: 4.76%

Q: And the viability, T/C (second compound 0.03 µM, first compound 10 µM)?
A: 2.76%

Q: And the viability, T/C (second compound 0.0949 µM, first compound 0.0316 µM)?
A: 52.6%

Q: What about the viability, T/C (second compound 0.0949 µM, first compound 0.1 µM) of the same molecule?
A: 26.3%

Q: And the viability, T/C (second compound 0.0949 µM, first compound 0.316 µM)?
A: 7.13%

Q: What about the viability, T/C (second compound 0.0949 µM, first compound 1 µM) of the same molecule?
A: 3.79%

Q: What about the viability, T/C (second compound 0.0949 µM, first compound 3.16 µM) of the same molecule?
A: 2.21%

Q: And the viability, T/C (second compound 0.0949 µM, first compound 10 µM)?
A: 2.17%

Q: What about the viability, T/C (second compound 0.3 µM, first compound 0.0316 µM) of the same molecule?
A: 27.4%

Q: And the viability, T/C (second compound 0.3 µM, first compound 0.1 µM)?
A: 8.1%

Q: And the viability, T/C (second compound 0.3 µM, first compound 0.316 µM)?
A: 3.14%

Q: What about the viability, T/C (second compound 0.3 µM, first compound 1 µM) of the same molecule?
A: 2.06%

Q: What about the viability, T/C (second compound 0.3 µM, first compound 3.16 µM) of the same molecule?
A: 1.62%

Q: And the viability, T/C (second compound 0.3 µM, first compound 10 µM)?
A: 1.41%

Q: What about the viability, T/C (second compound 0.949 µM, first compound 0.0316 µM) of the same molecule?
A: 16.2%

Q: And the viability, T/C (second compound 0.949 µM, first compound 0.1 µM)?
A: 5.72%

Q: What about the viability, T/C (second compound 0.949 µM, first compound 0.316 µM) of the same molecule?
A: 2.81%

Q: And the viability, T/C (second compound 0.949 µM, first compound 1 µM)?
A: 2.32%

Q: And the viability, T/C (second compound 0.949 µM, first compound 3.16 µM)?
A: 1.53%

Q: What about the viability, T/C (second compound 0.949 µM, first compound 10 µM) of the same molecule?
A: 1.08%

Q: What about the viability, T/C (second compound 3 µM, first compound 0.0316 µM) of the same molecule?
A: 7.02%

Q: What about the viability, T/C (second compound 3 µM, first compound 0.1 µM) of the same molecule?
A: 3.62%

Q: What about the viability, T/C (second compound 3 µM, first compound 0.316 µM) of the same molecule?
A: 2.69%

Q: And the viability, T/C (second compound 3 µM, first compound 1 µM)?
A: 2.2%

Q: And the viability, T/C (second compound 3 µM, first compound 3.16 µM)?
A: 1.71%

Q: And the viability, T/C (second compound 3 µM, first compound 10 µM)?
A: 1.33%
